According to patent US20240408099A1, “COMBINATION […] OF KRAS G12D INHIBITORS WITH Pan ErbB FAMILY INHIBITORS” (MIRATI THERAPEUTICS, INC., priority 2021, published 2024):

System: HPAC cells
Assay: HPAC TGI 73 pancreatic cancer xenograft, tumor volumes
Format: in vivo, nude/nude mice
Details: for Average Tumor Volumes: 50 mg/kg PO daily
Procedure: Immunocompromised nude/nude mice are inoculated in the right hind flank with cells harboring a KRas G12D mutation. When tumor volumes reach between 200-400 mm^3 in size, the mice are divided into four to five groups of 5 mice each. The first group is administered vehicle only. […] The fourth or last groups are administered the single agent dose of the KRas G12D inhibitor using the twice daily schedule and/or the 2 sequential days followed by 5 days off schedule in combination with the single agent dose of one of the EGFR inhibitors. The treatment period varies from cell line to cell line but typically is between 15-40 days. Tumor volumes are measured using a caliper every two-three days and tumor volumes are calculated by the formula: […].
Experimental Procedures. 20 nude/nude mice were inoculated with HPAC cells in the right hind flank. When the tumors reached ˜200 mm^3 four treatment groups were established with five mice per group.

C#Cc1cccc(Nc2ncnc3cc(OCCOC)c(OCCOC)cc23)c1 [Erlotinib, [6,7-Bis-(2-methoxy-ethoxy)-quinazolin-4-yl]-(3-ethynyl-phenyl)-amine, reference compound]
Average Tumor Volumes (Study Day 0): 197.582 mm^3
Average Tumor Volumes (Study Day 3): 320.132 mm^3
Average Tumor Volumes (Study Day 7): 421.908 mm^3
Average Tumor Volumes (Study Day 10): 587.79 mm^3
Average Tumor Volumes (Study Day 14): 705.688 mm^3
Average Tumor Volumes (Study Day 17): 856.214 mm^3
Average Tumor Volumes (Study Day 21): 945.702 mm^3
tumor growth inhibition (50 mg/kg daily, single agent, Day 21): 35%
